Assay results: patent US20240366611A1, “METHODS OF TREATING A DISEASE OR DISORDER” (Ascentage Pharma (Suzhou) Co., Ltd., priority 2021, published 2024)

Key:
HbF in human CD34+ HSC = experiment: HbF concentration in human CD34+ HSC by ELISA; assay type: cell-based; settings: 7 days of treatment
Method: (§1) Human cord blood CD34+ hematopoietic stem cells (HSC) were first expanded in the expansion medium (StemSpan SFEM II+StemSpan CD34 Expansion Supplement) to achieve the desired number of cells, and then differentiated in differentiation medium (StemSpan SFEM II+StemSpan Erythroid Expansion Supplement (100×)) for three days without drug treatment. Various concentrations of Cpd. 73 were added on the fourth day of differentiation and further incubated with the cells for another 7 days. 33 mM Hydroxyurea was used as the control.
After 7 days of treatment, the cells were collected and lysed. The concentration of HbF in the cell lysate was determined using a Human Fetal Hemoglobin (HBF) ELISA Kit (MyBioSource, MBS2024474). […] The cellular HbF concentration were 1.27-, 1.39-, 1.52-, 1.58- and 1.69-folds of the vehicle group when the cells were treated with 0.01 μM, 0.03 μM, 0.1 μM, 0.3 μM and 1.0 μM Cpd. 73 respectively. […] 73 where the cellular HbF concentration was 1.69-folds of the vehicle group (p<0.01). HbF concentration of cells treated with 33 mM Hydroxyurea was 1.18-folds of the vehicle group. Clinically, small increases of HbF concentration (1-5%) have the potential to provide clinical benefits to all SCD patients.

[1] = tested on: H3K27me3 in TER119+ erythroid lineage cells; experiment: H3K27me3 level in TER119+ erythroid lineage cells from bone marrow (FACS, H3K27me3/H3 ratio); assay type: in vivo, CD-1 mice
Method: Female CD-1 mice (8 weeks old) were housed and handled in a temperature-controlled environment with a 12-h light/12-h dark cycle. A total of 25 mice were assigned to 5 groups by randomization based on body weight, followed by 5 days of treatment with vehicle (po, qd), 3 mg/kg Cpd. 73 (po, qd), 10 mg/kg Cpd. 73 (po, qd), 30 mg/kg Cpd. 73 (po, qd), or 90 mg/kg Cpd. 73 (po, qd). The protocols and procedures involving the care and use of animals were approved by the Institutional Animal Care and Use Committee (IACUC) of WuXiAppTec (Shanghai) Co., Ltd. (Shanghai, China).
Mice were euthanatized 4 hours post the last dose. Whole blood and bone marrow were collected. Bone marrow cells were flushed from femur and tibia with IMDM+/+ (IMDM, 10% heat inactivated FBS, 100 U/mL penicillin and 100 μg/mL streptomycin). Aggregate was removed by passing through 40 μm cell strainer. 5 mL DPBS was used to pellet the cells after centrifugation, and the cell number was counted. Whole blood was added with 1×RBC lysis buffer remove RBC (whole blood: 1×RBC lysis buffer=1:9), and mononuclear cells were collected by centrifugation. The cells were then washed with 1×DPBS for once and resuspended in 3 ml DPBS after centrifugation followed by cell number counting.
Bone marrow cells were stained with FITC-conjugated anti-mouse TER-119 antibody (Thermo Fisher, 11-5921-82) and eFluor 506-conjugated anti-mouse CD45 antibody (Thermo Fisher, 69-0451-82). TER-119+ cells were erythroid lineage cells. PBMC were stained with eFlour 450-conjugated anti-mouse CD11b antibody (Invitrogen, 48-0112-82), PerCP-eFluor710-conjugated anti-mouse CD3 antibody (Invitrogen, 46-0032-82), eFluor 506-conjugated anti-mouse CD45 antibody (Thermo Fisher, 69-0451-82). CD45+CD3−CD11b+ cells were monocytes from PBMC.
After washing, centrifugation and fixation, the cells were permeabilized and further incubated with antibodies of H3K27m3 (Tri-Methyl-Histone H3 (Lys27) (C36B11) Rabbit mAb (PE Conjugate), CST, 40724S) and H3 (Histone H3 (D1H2) XP® Rabbit mAb (Alexa Fluor®647 Conjugate), CST, 12230S), followed by FACS analysis to quantify the mean fluorescence intensity of target cells. The ratio between the fluorescence intensity of H3K27me3 and H3 were used to reflect the level of H3K27me3 in the cells.

[2] = tested on: HbF+ cells in human CD34+ HSC; experiment: HbF+ cell % in human CD34+ HSC by FACS; assay type: cell-based; settings: 7 days of treatment
Method: as §1
After 7 days of treatment, the cells were collected and stained with PE-conjugated Mouse Anti-Human Fetal Hemoglobin (BD, 560041). The percentage of HbF+ cells were quantified by FACS. […] 73 respectively. […] 73 where HbF+ cell % was 2.58-folds of the vehicle group (p<0.0001). The % of HbF+ cells was 1.82-folds of the vehicle group when the cells were treated with 33 mM Hydroxyurea.

## CC(C)N1Cc2cc(C(F)(F)F)ncc2-c2cnc(NCc3c(F)ccc4c3CCO4)n3cnc(c23)C1=O [Cpd. 73, 12-(((5-fluoro-2,3-dihydrobenzofuran-4-yl)methyl)amino)-4-isopropyl-7-(trifluoromethyl)-4,5-dihydro-3H-2,4,8,11,12a-pentaazabenzo[4,5]cycloocta[1,2,3-cd]inden-3-one]
HbF in human CD34+ HSC; 0.01 μM
  cellular HbF concentration, folds of the vehicle group: 1.27 folds
HbF in human CD34+ HSC; 0.03 μM
  cellular HbF concentration, folds of the vehicle group: 1.39 folds
HbF in human CD34+ HSC; 0.1 μM
  cellular HbF concentration, folds of the vehicle group: 1.52 folds
HbF in human CD34+ HSC; 0.3 μM
  cellular HbF concentration, folds of the vehicle group: 1.58 folds
HbF in human CD34+ HSC; 1.0 μM, maximal effect, p<0.01
  cellular HbF concentration, folds of the vehicle group: 1.69 folds
[1]; 3 mg/kg po qd×5 days, vs vehicle
  decrease in H3K27me3 level: 21.2%
[1]; 10 mg/kg po qd×5 days, vs vehicle
  decrease in H3K27me3 level: 18.7%
[1]; 30 mg/kg po qd×5 days, vs vehicle
  decrease in H3K27me3 level: 21.6%
[1]; 90 mg/kg po qd×5 days, p<0.01 vs vehicle
  decrease in H3K27me3 level: 39.7%
[2]; 0.01 μM
  % of HbF+ cells, folds of the vehicle group: 0.73 folds
[2]; 0.03 μM
  % of HbF+ cells, folds of the vehicle group: 0.86 folds
[2]; 0.1 μM
  % of HbF+ cells, folds of the vehicle group: 1.50 folds
[2]; 0.3 μM
  % of HbF+ cells, folds of the vehicle group: 1.73 folds
[2]; 1.0 μM, maximal effect, p<0.0001
  % of HbF+ cells, folds of the vehicle group: 2.58 folds
